The numbers were not newly measured in patent US20050009776A1, “Method of treating atrial fibrillation or atrial flutter” (Aderis Pharmaceuticals, Inc., priority 2003, published 2005), which cites them from elsewhere.

For the series the following is noted: cited from earlier work.

Take `Nc1ncnc2c1ncn2[C@@H]1O[C@H](CO)[C@@H](O)[C@H]1O` [adenosine]: the half-life is 10 s.
